Values after ≈ are worked out from the molar mass of the structure shown. Where two headings read alike, the source gives them in different places.
How the values were obtained:
[1] = molecular target: lipoamide dehydrogenase (Lpd) (Mycobacterium tuberculosis (strain ATCC 25618 / H37Rv), UniProt P9WHH9); test: Lipoamide Dehydrogenase (Lpd) Inhibition Assay; type: biochemical
Mtb PDH (Lpd+DlaT+AceE) = Mtb PDH (Lpd+DlaT+AceE) (Mycobacterium tuberculosis (strain ATCC 25618 / H37Rv), UniProt P9WHH9); test: PDH Inhibition Activity; type: biochemical
[2] = test system: Mycobacterium tuberculosis strains H37Rv; test: In Vitro Antitubercular H37Rv MIC Assay (resazurin); type: cell-based; settings: 168 h
[3] = concentration required for 50% inhibition of LPD activity, DTNB detection, OD405 nm
[4] = concentration required for 50% inhibition of PDH activity, fluorescence ex 360 nm / em 460 nm, read-out: PDH IC50
[5] = Mycobacterium tuberculosis, H37RV
[6] = growth of Mycobacterium tuberculosis H37Rv, 7H9 medium, 7 days, tested 8-0.25 μg/mL

| SMILES | IC50 [1, 3] [µM] | IC50 (Mtb PDH (Lpd+DlaT+AceE); [4]) [µM] | other results |
| --- | --- | --- | --- |
| Cn1nc(-c2ccccc2)nc2c(=O)n(C)c(=O)nc1-2 [Compound 601] | < 0.04 | < 0.04 | MIC [2, 5]: > 8 µg/mL |
| Nc1c(Br)cc(Br)c2nsnc12 [Compound 202] | – | 1.69 | – |
| CCCc1nc2c(=O)n(C)c(=O)nc-2n(C)n1 [Compound 617] | < 0.04 | < 0.04 | – |
| COc1ccc(CCI)cc1 [Compound 303] | – | < 0.04 | MIC [2, 6]: 2 µg/mL (≈ 7.63 µM) |
| O=C1C=C(NCc2ccccc2)c2ccccc2C1=O [Compound 901] | 0.1 | 4.28 | MIC [2, 6]: 8 µg/mL (≈ 30.4 µM) |
| O=C1c2ccccc2C(O)(O)[C@@]1(O)[C@]1(O)C(=O)c2ccccc2C1(O)O [Compound 101] | – | 1.93 | MIC [2, 5]: > 8 µg/mL |
| Cn1c(N)c(C(=O)NCc2ccccc2)c2nc3ccccc3nc21 [Compound 1013] | > 4 | > 5 | – |
| CCn1nc(-c2ccc([N+](=O)[O-])cc2)nc2c(=O)n(C)c(=O)nc1-2 [Compound 620] | < 0.04 | < 0.04 | – |
| CCCCn1c(NC(=O)c2ccccc2)c(C#N)c2nc3ccccc3nc21 [Compound 1003] | 0.52 ± 0.07 | > 5 | – |
| CCn1nc(-c2ccccc2C)nc2c(=O)n(C)c(=O)nc1-2 [Compound 613] | < 0.04 | < 0.04 | – |
| COCCCn1c(N)c(C(=O)NCCC(C)C)c2nc3ccccc3nc21 [Compound 1012] | > 4 | > 5 | – |
| CCn1nc(-c2ccc(C(=O)OC)cc2)nc2c(=O)n(C)c(=O)nc1-2 [Compound 621] | < 0.04 | < 0.04 | – |
| O=C1c2ccccc2-c2nc3nonc3nc21 [Compound 103] | – | < 0.04 | MIC [2, 6]: ≤ 0.25 µg/mL |
| CCCCn1c(NS(=O)(=O)c2ccc(C)cc2)c(C#N)c2nc3ccccc3nc21 [Compound 1005] | 0.9 ± 0.13 | > 5 | – |
| Cn1nc(-c2ccc([N+](=O)[O-])cc2)nc2c(=O)n(C)c(=O)nc1-2 [Compound 614] | < 0.04 | < 0.04 | – |
| COCCn1c(NC(=O)c2cccc([N+](=O)[O-])c2)c(C#N)c2nc3ccccc3nc21 [Compound 1008] | 1.05 ± 0.14 | > 5 | – |
| C=CCOCc1ccccc1 [Compound 301] | – | 0.76 | MIC [2, 6]: 8 µg/mL (≈ 54 µM) |
| O=C(OC[C@H]1O[C@H](OC(=O)c2cc(O)c(O)c(OC(=O)c3cc(O)c(O)c(O)c3)c2)[C@H](OC(=O)c2cc(O)c(O)c(OC(=O)c3cc(O)c(O)c(O)c3)c2)[C@@H](OC(=O)c2cc(O)c(O)c(OC(=O)c3cc(O)c(O)c(O)c3)c2)[C@@H]1OC(=O)c1cc(O)c(O)c(OC(=O)c2cc(O)c(O)c(O)c2)c1)c1cc(O)c(O)c(OC(=O)c2cc(O)c(O)c(O)c2)c1 [Compound 302] | – | 0.45 | MIC [2, 6]: > 8 µg/mL |
| N#Cc1c(NC(=O)c2ccc(Cl)c([N+](=O)[O-])c2)n(Cc2ccccc2)c2nc3ccccc3nc12 [Compound 1010] | – | – | IC50 [1]: > 4 µM; IC50 (Mtb PDH (Lpd+DlaT+AceE)): > 5 µM |
| CCn1nc(-c2ccccc2Cl)nc2c(=O)n(C)c(=O)nc1-2 [Compound 615] | < 0.04 | < 0.04 | – |
| CCCCCn1c(NC(=O)c2ccc(Br)o2)c(C#N)c2nc3ccccc3nc21 [Compound 1007] | – | – | IC50 [1]: 1.36 ± 0.16 µM; IC50 (Mtb PDH (Lpd+DlaT+AceE)): > 5 µM |
| CC(C)n1cnc(S(=O)(=O)N2CCC(C(=O)Nc3cccc(-c4ccno4)c3)CC2)c1 [Compound 535] | 2.12 ± 0.21 | – | – |
| Cc1ccc(-c2nc3c(=O)n(C)c(=O)nc-3n(C)n2)cc1 [Compound 618] | – | – | IC50 [1]: < 0.04 µM; IC50 (Mtb PDH (Lpd+DlaT+AceE)): < 0.04 µM |
| CCOc1ccc2cc(CNc3ccc(O)cc3)c(O)nc2c1 [Compound 802] | 3.34 ± 0.26 | – | – |
| CN(C(=O)c1ccc2c(c1)OCCO2)c1nc2c(s1)CCc1c-2cnn1C [Compound 1106] | – | – | IC50 [1]: 2.67 ± 0.23 µM |
| CCn1cnc(S(=O)(=O)N2CCC(C(=O)Nc3ccc4c(c3)OCCO4)CC2)c1 [Compound 545] | 2.69 ± 0.56 | – | – |
| COc1ccc2nc(NC(=O)C3CCN(S(=O)(=O)c4cn(C(C)C)cn4)CC3)sc2c1 [Compound 551] | 2.28 ± 0.11 | – | – |

| SMILES | IC50 [1, 3] [µM] | IC50 (Mtb PDH (Lpd+DlaT+AceE); [4]) [µM] | other results |
| --- | --- | --- | --- |
| COc1ccc(NC(=O)CN(C)S(=O)(=O)c2cc(Br)cnc2N)cc1 [Compound 500] | – | – | MIC [2, 6]: > 8 µg/mL |
| CN(C(=O)Cc1cccs1)c1nc2c(s1)CCc1c-2cnn1C [Compound 1103] | 2.89 ± 0.46 | – | – |
| Cc1ccc(NC(=O)C2CCN(S(=O)(=O)c3cn(C(C)C)cn3)CC2)cc1C [Compound 510] | 2.45 ± 0.21 | – | – |
| CCc1ccc(NC(=O)C2CCN(S(=O)(=O)c3cn(CC)cn3)CC2)cc1 [Compound 539] | – | – | IC50 [1]: 4.3 ± 1.66 µM |
| CC(C)n1cnc(S(=O)(=O)N2CCC(C(=O)Nc3ccc(S(N)(=O)=O)cc3)CC2)c1 [Compound 513] | 4.12 ± 1.81 | – | – |
| CC(C)n1cnc(S(=O)(=O)N2CCC(C(=O)Nc3cccc(Cl)c3)CC2)c1 [Compound 518] | 3.83 ± 0.78 | – | – |
| Cn1nc(-c2ccc(F)cc2)nc2c(=O)n(C)c(=O)nc1-2 [Compound 616] | – | – | IC50 [1]: < 0.04 µM; IC50 (Mtb PDH (Lpd+DlaT+AceE)): < 0.04 µM |
| CCOC(=O)c1ccc(NC(=O)C2CCN(S(=O)(=O)c3cn(C(C)C)cn3)CC2)cc1 [Compound 525] | 2.44 ± 0.58 | – | – |
| COc1ccc(CNC(=O)C2CCN(S(=O)(=O)c3cn(C(C)C)cn3)CC2)cc1 [Compound 558] | 3.33 ± 0.8 | – | – |
| Cc1cccc(CNC(=O)C2CCN(S(=O)(=O)c3cn(C(C)C)cn3)CC2)c1 [Compound 540] | – | – | IC50 [1]: 4.18 ± 1.09 µM |
| Cn1nc(-c2ccc(C(F)(F)F)cc2)nc2c(=O)n(C)c(=O)nc1-2 [Compound 619] | < 0.04 | < 0.04 | – |
| CC(C)n1cnc(S(=O)(=O)N2CCC(C(=O)NCc3ccc(Br)cc3)CC2)c1 [Compound 555] | 3.2 ± 1.05 | – | – |
| CCc1ccc2nc(O)c(CNc3ccc(N(C)C)cc3)cc2c1 [Compound 806] | 4.73 ± 0.91 | – | – |
| CCOC(=O)c1c(NS(=O)(=O)c2ccccc2)n(CCCOC)c2nc3ccccc3nc12 [Compound 1011] | 1.31 ± 0.16 | > 5 | – |
| c1ccc2c(c1)ccn1c3ccccc3cc21 [Compound 401] | – | 0.14 | MIC [2, 6]: > 8 µg/mL |
| CC(C)Oc1ccc(CNC(=O)C2CCN(S(=O)(=O)c3cn(C(C)C)cn3)CC2)cc1 [Compound 560] | 3.86 ± 0.9 | – | – |
| CCC(C)n1c(NC(=O)c2ccc(Br)o2)c(C#N)c2nc3ccccc3nc21 (stereo not shown) [Compound 1009] | 1.65 ± 0.23 | > 5 | – |
| CC(=O)C(C(C)=O)C1=CC(=O)C(=O)c2ccccc21 [Compound 906] | 2.15 ± 0.43 | > 5 | – |
| Nc1c(O)ccc2nsnc12 [Compound 203] | – | 3.67 | MIC [2, 6]: > 8 µg/mL |
| CCOc1ccccc1/C=C1\Cc2ccccc2C1=O [Compound 102] | – | 1.13 | MIC [2, 6]: > 8 µg/mL |
| COCCN(C(=O)c1nsc(Cl)c1Cl)c1nc2c(s1)CCc1c-2cnn1C [Compound 1104] | 2.24 ± 0.26 | – | – |
| CN1N=C(c2ccccc2)Nc2c1nc(O)n(C)c2=O [Compound 701] | – | < 0.04 | MIC [2, 5]: > 8 µg/mL |
| COc1ccc(NC(=O)C2CCN(S(=O)(=O)c3cn(C(C)C)cn3)CC2)cc1OC [Compound 528] | 1.83 ± 0.14 | – | – |
| CCCCn1c(NC(=O)c2cccs2)c(C#N)c2nc3ccccc3nc21 [Compound 1006] | 0.86 ± 0.16 | > 5 | – |
| COc1cc(OC)c(NC(=O)C2CCN(S(=O)(=O)c3cn(C(C)C)cn3)CC2)cc1Cl [Compound 546] | – | – | IC50 [1]: 2.85 ± 0.78 µM |
| Cc1ccc2cc(CNc3ccc(O)cc3)c(O)nc2c1 [Compound 805] | 1.64 ± 0.14 | – | – |
| CCC(C)n1c(NC(=O)c2ccccc2)c(C#N)c2nc3ccccc3nc21 (stereo not shown) [Compound 1004] | 0.87 ± 0.1 | > 5 | – |
